Laboratory results taken from patent US20240122897A1, “DMT SALTS AND THEIR USE TO TREAT BRAIN INJURY” (ALGERNON PHARMACEUTICALS INC., priority 2021, published 2024).
Where two headings read alike, the source gives them in different places.

Experiments:
[1] = system: cerebral ischemia-reperfusion injury; conditions: rat; cited from earlier work
[2] = in vivo, cited from earlier work
[3] = system: primary rat cortical neurons; assay: Neurite outgrowth of primary rat cortical neurons (MAP-2 immunocytochemistry)
[4] = target: T1, Serotonin (5-Hydroxytryptamine) 5-HT2A (Homo sapiens, UniProt P28223); assay: biochemical; type: binding
T1 construct: purchased Eurofins Panlabs, Inc. 271650
T1 sequence (P28223 whole entry): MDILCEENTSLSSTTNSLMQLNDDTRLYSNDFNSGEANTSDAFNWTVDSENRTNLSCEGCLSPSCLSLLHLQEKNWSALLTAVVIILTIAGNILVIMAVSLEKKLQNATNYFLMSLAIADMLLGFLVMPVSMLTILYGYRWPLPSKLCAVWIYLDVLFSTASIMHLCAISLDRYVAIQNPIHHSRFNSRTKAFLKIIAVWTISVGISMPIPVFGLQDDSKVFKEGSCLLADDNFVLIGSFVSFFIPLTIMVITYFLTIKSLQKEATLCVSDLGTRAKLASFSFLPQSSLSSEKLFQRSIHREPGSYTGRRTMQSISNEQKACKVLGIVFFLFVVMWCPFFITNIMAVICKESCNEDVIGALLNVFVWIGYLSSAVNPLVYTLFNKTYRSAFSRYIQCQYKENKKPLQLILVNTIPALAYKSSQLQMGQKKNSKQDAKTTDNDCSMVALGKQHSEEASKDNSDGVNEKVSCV

sigma-1 receptor [5] = target: T2, sigma-1 receptor (Homo sapiens, UniProt Q99720)
T2 sequence (Q99720 whole entry): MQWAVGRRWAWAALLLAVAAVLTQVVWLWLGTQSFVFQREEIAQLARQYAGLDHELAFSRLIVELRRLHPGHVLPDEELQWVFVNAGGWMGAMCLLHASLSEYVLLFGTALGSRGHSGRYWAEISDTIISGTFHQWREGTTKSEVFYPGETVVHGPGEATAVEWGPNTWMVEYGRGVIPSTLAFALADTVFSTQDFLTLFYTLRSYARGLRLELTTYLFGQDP
Procedure: (§1) IC50 values were determined by a non-linear, least squares regression analysis using MathIQ™ (ID Business Solutions Ltd., UK). […] The Hill coefficient (nH), defining the slope of the competitive binding curve, was calculated using MathIQ™.
(§2) Biochemical assay results are presented as the percent inhibition of specific binding or activity. All other results are expressed in terms of that assay's quantitation method. Primary screening in duplicate with semi-quantitative data (e.g., estimated IC50, Ki and nH) are shown.

sigma-1 receptor [6] = target: T2, sigma-1 receptor; assay: biochemical; conditions: for IC50: IC50, estimated, duplicate; for Ki: Cheng and Prusoff
Procedure: as §1, §2

| SMILES | nH (Hill coefficient) [4] | % Inh. ([4]; 0.003 µM) [%] | % Inh. ([4]; 0.3 µM) [%] | IC50 [4] [nM] | Ki [4] [nM] | nH (Hill coefficient) (sigma-1 receptor [5]) | % Inh. (sigma-1 receptor [5]; 0.03 μM) [%] | % Inh. (sigma-1 receptor [5]; 0.1 μM) [%] | % Inh. (sigma-1 receptor [5]; 0.5 μM) [%] | % Inh. (sigma-1 receptor [5]; 1 μM) [%] | % Inh. (sigma-1 receptor [5]; 10 μM) [%] | IC50 (sigma-1 receptor [6]) [nM] | Ki (sigma-1 receptor [6]) [nM] | % Inh. ([4]; 0.01 µM) [%] | % Inh. ([4]; 0.03 μM) [%] | % Inh. ([4]; 1 μM) [%] | inhibition at 0.1 µM ([4]; read-out: % Inh.) [%] | inhibition at 3 µM ([4]; read-out: % Inh.) [%] | inhibition at 10 µM ([4]; read-out: % Inh.) [%] | % Inh. (sigma-1 receptor [5]; 10 nM, 0.01 µM) [%] | other results |
| --- | --- | --- | --- | --- | --- | --- | --- | --- | --- | --- | --- | --- | --- | --- | --- | --- | --- | --- | --- | --- | --- |
| CN(C)CCc1c[nH]c2ccccc12 [DMT, N, N-Dimethyltryptamine] |  |  |  |  |  |  |  |  |  |  |  |  |  |  |  |  |  |  |  |  | functional recovery [1]: improved; infarct (dead cells) volume [1]: reduced; oral availability ([2]; po): not orally available; half-life [2]: 15 min; neurite outgrowth of rat cortical neurons ([3]; DMT stimulation, overall): showed beneficial effects |
| CNC1(c2ccccc2Cl)CCCCC1=O (stereo not drawn) [Ketamine] |  |  |  |  |  |  |  |  |  |  |  |  |  |  |  |  |  |  |  |  | neurite outgrowth ([3]; 10 nM, 1-72 h stimulation): did not show any significant beneficial effects |
| CN(C)CCc1c[nH]c2ccccc12.O=C(O)/C=C/C(=O)O [N,N-Dimethyltryptamine fumarate, reference compound] | 0.75 | 8 | 48 | 250 | 71 | 0.76 | 15 | 7 | 5 | 14 | 50 | 10200 | 5280 |  |  |  |  |  |  |  | % Inh. ([4]; 0.1 μM): 26%; % Inh. ([4]; 3 µM): 93%; % Inh. ([4]; 10 μM): 98%; inhibition at 0.01 µM ([4]; read-out: % Inh.): 15%; inhibition at 0.03 µM ([4]; read-out: % Inh.): 24%; inhibition at 1 µM ([4]; read-out: % Inh.): 76%; % Inh. (sigma-1 receptor [5]; 10 nM): 6%; inhibition at 5 µM (sigma-1 receptor [6]; read-out: % Inh., 5 μM): 36%; inhibition at 16 µM (sigma-1 receptor [6]; read-out: % Inh., 16 μM): 59% |
| CN(C)CCc1c[nH]c2ccccc12 [N,N-Dimethyltryptamine nicotinate] | 0.71 |  | 31 | 600 | 170 |  | −9 | −3 | −13 | 5 | 44 |  |  | 14 | 17 | 59 | 19 | 79 | 92 | −6 | inhibition at 0.003 µM ([4]; read-out: % Inh.): 7%; % Inh. (sigma-1 receptor [5]; 5 μM): 23%; % Inh. (sigma-1 receptor [5]; 16 μM): 44%; binding affinity to sigma-1-receptors (sigma-1 receptor [5]; at concentrations above 0.5 μM): good binding affinity |
| CN(C)CCc1c[nH]c2ccccc12 [N,N-Dimethyltryptamine pamoate] | 0.92 | 2 |  | 190 | 54 | 1.35 | −10 | 0 | 1 | 6 |  | 6310 | 3250 | 10 | 20 | 86 | 34 | 95 | 100 | −14 | 5HT2A binding compared to DMT fumarate [4]: improved 5HT2A binding; inhibition at 0.3 µM ([4]; read-out: % Inh.): 56%; % Inh. (sigma-1 receptor [5]; 5 μM): 45%; % Inh. (sigma-1 receptor [5]; 16 μM): 77%; affinity to sigma-1 receptors compared to DMT fumarate (sigma-1 receptor [5]; at concentrations above 1 μM): better affinity; inhibition at 10 µM (sigma-1 receptor [6]; read-out: % Inh., 10 μM): 64% |
